# Data: EPA's ToxValDB 9.5 (doi:10.2903/j.efsa.2011.2087)
# How the values were obtained:
# Typhlodromus pyri = test: LR50; higher = less toxic; details: acute; duration: 7 days; mortality
# Colinus virginianus = details: reproduction developmental
# Tagia sp. = details: acute; duration: 14 days; mortality
# Daphnia magna = details: chronic/long-term; duration: 21 days; reproduction
# Bibionidae = details: chronic/long-term; duration: 28 days
# Apis mellifera = details: acute; duration: 96 hours; dermal; mortality
# Oncorhynchus mykiss = details: acute; duration: 96 hours; mortality
# Pimephales promelas = details: chronic/long-term; duration: 272 days; growth
# Cyprinodon variegatus = details: acute; duration: 96 hours; mortality
smiles,measurement,setting,value
C#CCOS(=O)OC1CCCCC1Oc1ccc(C(C)(C)C)cc1 (stereo not drawn) [Propargite],LR50,Typhlodromus pyri,4.5 g/ha
same,NOEC,Colinus virginianus,142 mg/kg-day
same,LC50,Tagia sp.,378 mg/kg
same,NOEC,Daphnia magna,0.009 mg/L
same,NOEC,Bibionidae,0.32 mg/L
same,LD50,Apis mellifera,47.9 µg/piece
same,LD50,"Rattus norvegicus; acute, oral, mortality",2640 mg/kg-day
same,NOEL,Rattus norvegicus; chronic,6.3 mg/kg-day
same,LD50,"Anas platyrhynchos; acute, oral, unspecified, mortality",> 4640 mg/kg
same,NOEC,Anas platyrhynchos; reproductive,13.5 mg/kg-day
same,LC50,Oncorhynchus mykiss,0.043 µg/mL
same,NOEC,Pimephales promelas,0.0057 mg/L
same,LC50,Cyprinodon variegatus,0.055 µg/mL
